Target: T1, human carbonic anhydrase II (hCAII) (Homo sapiens, UniProt P00918)
T1 construct: made in house
Experiment: colorimetric endpoint measurement of hCAII-catalyzed pNPA hydrolysis
Type: biochemical
Details: for Ki: calculated from IC50 by Cheng–Prusoff equation, Km = 1092.5 µM for pNPA, [S] = 5.0 mM; for IC50: wild-type hCAII 500 nM, pNPA 5 mM, 50 mM Tris pH 7.4, 20–30 min in the dark, absorbance at 400 nm
Text: In order to determine the half-maximal inhibitory concentrations (IC50) and the inhibitory constants (Ki) towards hCAII for our library, we used a colorimetric endpoint measurement of the catalyzed pNPA hydrolysis (Figure 1a). Usually, a dansyl competition assay is employed for this purpose. However, as this assay is fluorescence-based and azobenzenes can quench fluorescence, this might cause a distortion in the obtained data. Furthermore, irradiation with UV light (i.e., λ = 280 nm for tryptophan excitation) can result in azobenzene-cis-isomerization, which could lead to different binding characteristics. Therefore, we aimed at the endpoint absorbance system described herein.
5. hCAII purification, crystallization and assay
5.1. Purification and crystallization
Wild-type human Carbonic Anhydrase II (hCAII) was expressed and purified as […]
previously reported. […]
5.2. Determination of half-maximal inhibitory concentration (IC50)
Approximately 1.0 mg of hCAII was dissolved in 100 µL of 50 mM Tris (pH 7.4) and diluted to a final concentration of 500 nM (concentration was determined in duplicates by absorbance spectroscopy) and mixed with the appropriate amount of blocker. The enzyme-blocker solution was then pipetted into a 96-well plate (white, clear flat bottom) containing pNPA for a final concentration of 5 mM. This was added simultaneously with a multi-well-pipette. After 20–30 min of incubation in the dark, the absorbance was measured using a plate reader at λ = 400 nm. Obtained data was background substracted and divided by data points of non-inhibited hCAII in order to obtain relative activity. The data points were fitted sigmoidal (eq. 1) or using the Hill equation (eq. 2) using IgorPro […]
All experiments were performed at least in triplicates. […]
y = base + [max / (1 + exp[(xhalf – x)/rate)]] (eq. 1) y = base + (max – base)/(1 + (xhalf / x)rate) (eq. 2)
5.3. Determination of inhibitory constants (Ki)
Inhibitory constants were determined using the Cheng–Prussow equation (eq. 3) with the obtained half-maximal inibitory constants (IC50) and with substrate concentration [S]
The Michaelis–Menten constant Km was obtained for this assay system independently and […]

`Cc1ccc(/N=N/c2ccc(S(N)(=O)=O)cc2)cc1` [1f] showed a Ki of 65.1 nM and an IC50 of 363 nM.
`[N-]=[N+]=Nc1ccc(/N=N/c2ccc(S(N)(=O)=O)cc2)cc1` [1e] showed a Ki of 46.1 nM and an IC50 of 257 nM.
`CCOC(=O)c1ccc(/N=N/c2ccc(S(N)(=O)=O)cc2)cc1` [1i, (E)-Ethyl 4-((4-sulfamoylphenyl)diazenyl)benzoate] was tested, and the Ki was 30.1 nM and the IC50 was 168 nM.
`NS(=O)(=O)c1ccc(/N=N/c2ccc(O)cc2)cc1` [1a] was tested, and the Ki was 29.7 nM and the IC50 was 166 nM.
`NS(=O)(=O)c1ccc(/N=N/c2ccc([N+](=O)[O-])cc2)cc1` [1g] gave a Ki of 28.6 nM and an IC50 of 159 nM.
Molecule `CCN(CC)c1ccc(/N=N/c2ccc(S(N)(=O)=O)cc2)cc1` [1b] has a Ki of 25 nM and an IC50 of 140 nM.
Work on `NS(=O)(=O)c1ccc(/N=N/c2ccc(N3CCOCC3)cc2)cc1` [1c] yielded a Ki of 55.4 nM and an IC50 of 309 nM.
Work on `NS(=O)(=O)c1ccc(/N=N/c2ccccc2)cc1` [1h] yielded a Ki of 44.8 nM and an IC50 of 250 nM.

Reference: PMC4505086, “Azobenzene-based inhibitors of human carbonic anhydrase II” (Beilstein Journal of Organic Chemistry, 2015)
